Laboratory results taken from paper PMC4704194, “Structural Basis of Metallo-β-Lactamase Inhibition by Captopril Stereoisomers” (Antimicrobial Agents and Chemotherapy, 2015).
≈ marks a conversion by molar mass, not a printed value.

Key:
DCLRE1B = target: T1, DCLRE1B (Homo sapiens, UniProt Q9H816); assay: Nuclease assay, DCLRE1B; conditions: at 100 μM, standard assay conditions
T1 sequence (Q9H816 1-335 limits assumed): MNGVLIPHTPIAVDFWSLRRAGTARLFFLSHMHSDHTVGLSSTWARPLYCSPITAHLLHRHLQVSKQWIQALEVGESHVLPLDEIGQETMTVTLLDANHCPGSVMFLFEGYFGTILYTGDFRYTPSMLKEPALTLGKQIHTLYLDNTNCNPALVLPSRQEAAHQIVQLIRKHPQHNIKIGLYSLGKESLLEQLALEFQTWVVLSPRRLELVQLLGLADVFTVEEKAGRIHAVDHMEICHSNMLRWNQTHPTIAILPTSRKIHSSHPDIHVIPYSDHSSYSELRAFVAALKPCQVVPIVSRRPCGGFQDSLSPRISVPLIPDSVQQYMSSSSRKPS
Procedure: (§2) Nuclease assays with DCLRE1A and DCLRE1B (DNA cross-link repair enzymes 1A and 1B) ([33]) were performed according to a previously described method ([33]), employing a 21-nucleotide DNA oligonucleotide with a fluorescein label at its 3′ end. In brief, exonuclease activity was measured using ΔN-DCLRE1A (3.5 ng; 8 nM) or ΔC-DCLRE1B (1.5 ng; 4 nM) mixed with 1 pmol (1 μM) of 3′-fluorescein-labeled DNA substrate in 10 μl of 20 mM HEPES, pH 7.9, 50 mM KCl, 10 mM MgCl2, 0.5 mM dithiothreitol (DTT), 0.05% Triton-X, 0.1 mg/ml bovine serum albumin (BSA), and 5% glycerol.
(§3) [SNM1A] = [SNM1B] = 0.8 nM; [21nt fluor-ssDNA] = 1 µM, assay time = 20 mins

[1] = target: hydroxyacylglutathione hydrolase, human glyoxylase II (hHAGH) (Homo sapiens, UniProt Q16775); assay: Inhibition assay, hHAGH; type: biochemical; conditions: at 100 μM, standard assay conditions
Procedure: (§4) Kinetic and inhibition assays with the bacterial MBLs, human angiotensin-converting enzyme 2 (hACE-2), and hydroxyacylglutathione hydrolase, human glyoxylase II (hHAGH), were performed as described previously ([7], [27]).

IMP-1 = IMP-1 (Serratia marcescens, UniProt P52699); assay: MBL inhibition assay, IMP-1
Sequence of IMP-1 (P52699 19-246 limits assumed): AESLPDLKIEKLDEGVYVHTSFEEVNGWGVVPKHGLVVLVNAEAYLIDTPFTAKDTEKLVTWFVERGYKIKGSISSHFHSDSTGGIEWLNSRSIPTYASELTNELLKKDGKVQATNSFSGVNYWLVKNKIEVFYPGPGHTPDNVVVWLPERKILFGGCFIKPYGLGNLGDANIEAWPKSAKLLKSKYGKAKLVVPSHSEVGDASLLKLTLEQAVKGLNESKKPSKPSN
Procedure: (§5) Recombinant forms of NDM-1, VIM-2, VIM-4, SPM-1, IMP-1, and BcII MBLs were produced in Escherichia coli as described previously ([27], [28]).
as §4

[2] = target: human angiotensin-converting enzyme 2 (hACE-2) (Homo sapiens, UniProt Q9BYF1); assay: Inhibition assay, hACE-2; type: biochemical; conditions: at 100 μM, standard assay conditions
Sequence of human angiotensin-converting enzyme 2 (hACE-2) (Q9BYF1 18-805): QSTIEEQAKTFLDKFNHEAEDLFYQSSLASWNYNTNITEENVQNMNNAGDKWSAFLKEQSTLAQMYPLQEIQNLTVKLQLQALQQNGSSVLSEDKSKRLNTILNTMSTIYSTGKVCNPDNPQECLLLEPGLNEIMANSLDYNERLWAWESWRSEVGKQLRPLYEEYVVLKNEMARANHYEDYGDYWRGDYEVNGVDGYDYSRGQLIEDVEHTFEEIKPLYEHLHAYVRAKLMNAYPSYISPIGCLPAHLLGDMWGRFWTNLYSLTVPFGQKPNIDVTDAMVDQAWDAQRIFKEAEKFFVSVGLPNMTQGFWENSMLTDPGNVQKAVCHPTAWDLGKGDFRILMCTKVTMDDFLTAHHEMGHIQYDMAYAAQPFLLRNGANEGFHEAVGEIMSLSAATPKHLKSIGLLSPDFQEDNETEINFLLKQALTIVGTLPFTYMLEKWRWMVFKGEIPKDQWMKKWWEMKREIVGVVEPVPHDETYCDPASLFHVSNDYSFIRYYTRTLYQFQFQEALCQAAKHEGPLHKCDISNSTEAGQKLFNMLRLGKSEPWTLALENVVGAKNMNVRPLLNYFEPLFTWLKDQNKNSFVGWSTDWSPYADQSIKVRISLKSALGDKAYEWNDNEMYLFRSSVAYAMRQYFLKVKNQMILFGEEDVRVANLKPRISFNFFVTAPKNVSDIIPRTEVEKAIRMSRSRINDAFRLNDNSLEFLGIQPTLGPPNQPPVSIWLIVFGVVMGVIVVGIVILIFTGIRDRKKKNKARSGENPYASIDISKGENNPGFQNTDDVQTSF
Procedure: as §4

BcII = BcII (Bacillus cereus, UniProt P04190); assay: MBL inhibition assay, BcII
Sequence of BcII (P04190 31-257): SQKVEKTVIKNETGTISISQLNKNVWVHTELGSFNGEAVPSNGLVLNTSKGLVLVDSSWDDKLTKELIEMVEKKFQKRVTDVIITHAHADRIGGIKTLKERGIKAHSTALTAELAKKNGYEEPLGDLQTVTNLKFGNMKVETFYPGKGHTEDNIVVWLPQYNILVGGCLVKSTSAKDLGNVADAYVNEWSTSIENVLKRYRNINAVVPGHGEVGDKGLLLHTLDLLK
Procedure: as §5, §4

DCLRE1A = target: T2, DCLRE1A (Homo sapiens, UniProt Q6PJP8); assay: Nuclease assay, DCLRE1A; conditions: at 100 μM, standard assay conditions
T2 sequence (Q6PJP8 608-1040 limits assumed): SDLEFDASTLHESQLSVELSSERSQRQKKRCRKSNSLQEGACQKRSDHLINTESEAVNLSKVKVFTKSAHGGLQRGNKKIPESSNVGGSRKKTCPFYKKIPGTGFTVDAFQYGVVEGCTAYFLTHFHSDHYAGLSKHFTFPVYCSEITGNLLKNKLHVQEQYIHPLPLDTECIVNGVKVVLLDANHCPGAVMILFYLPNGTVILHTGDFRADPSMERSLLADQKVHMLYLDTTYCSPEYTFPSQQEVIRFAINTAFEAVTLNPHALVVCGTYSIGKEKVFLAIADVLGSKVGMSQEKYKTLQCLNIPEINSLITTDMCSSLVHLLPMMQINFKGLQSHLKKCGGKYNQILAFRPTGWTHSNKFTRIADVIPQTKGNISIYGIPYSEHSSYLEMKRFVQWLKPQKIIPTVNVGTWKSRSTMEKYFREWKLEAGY
Procedure: as §2, §3

VIM-2 = target: T3, VIM-2 (Escherichia coli, UniProt Q5U7L7); assay: biochemical; conditions: means ± standard deviations, three or more experiments
T3 construct: made in house; host or cells: Escherichia coli
Procedure: as §5, §4

SPM-1 = SPM-1 (Pseudomonas aeruginosa, UniProt Q8G9Q0); assay: MBL inhibition assay, SPM-1
Sequence of SPM-1 (Q8G9Q0 entry or part of it): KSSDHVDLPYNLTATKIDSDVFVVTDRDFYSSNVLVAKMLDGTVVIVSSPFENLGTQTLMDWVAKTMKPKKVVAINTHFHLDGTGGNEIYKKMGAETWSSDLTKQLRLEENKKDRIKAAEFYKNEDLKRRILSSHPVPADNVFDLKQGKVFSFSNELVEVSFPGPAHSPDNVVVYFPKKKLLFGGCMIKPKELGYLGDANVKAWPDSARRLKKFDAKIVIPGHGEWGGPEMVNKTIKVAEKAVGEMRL
Procedure: as §5, §4

NDM-1 = target: T4, NDM-1 (Klebsiella pneumoniae, UniProt C7C422); assay: biochemical
T4 construct: made in house; host or cells: Escherichia coli
T4 sequence (C7C422 29-270 limits assumed): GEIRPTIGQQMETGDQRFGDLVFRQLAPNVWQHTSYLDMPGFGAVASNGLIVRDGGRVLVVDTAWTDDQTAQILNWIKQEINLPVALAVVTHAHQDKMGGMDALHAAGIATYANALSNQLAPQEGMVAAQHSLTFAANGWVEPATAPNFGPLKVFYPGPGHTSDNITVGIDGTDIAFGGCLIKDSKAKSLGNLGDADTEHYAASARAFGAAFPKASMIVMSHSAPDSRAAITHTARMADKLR
Procedure: as §5, §4

[3] = tested on: E. coli J53 + VIM-2 transconjugant; assay: MIC, broth microdilution; type: cell-based, Escherichia coli; conditions: captopril where added at 8 mg/liter
From the text: (§1) The bacteria used were nonclonal international isolates whose mechanisms of carbapenem resistance have been defined genetically by sequencing. E. coli ATCC 25922 was used as a negative control. MBL genes were obtained by PCR using standard procedures and were inserted into a pK18 vector which was used to transform E. coli J53 ([34]). Transconjugants were obtained with MBL genes carried on native wild-type plasmids conjugated into J53 ([35]). Both transformants and transconjugants were confirmed by DNA sequencing and verified for MBL production by using MTS MBL strips (Liofilchem, Roseto, Italy). Additionally, 5 Escherichia coli (with NDM-1), 10 Klebsiella pneumoniae (5 with NDM-1, 3 with VIM-4, and 2 with IMP-4), 1 Serratia marcescens (with IMP-4), and 2 Pseudomonas aeruginosa (with VIM-2 and AIM-1) isolates and E. coli ATCC 25922 were used in the test panel. MICs were determined using the broth microdilution method according to CLSI guidelines. Strains were cultured and tested in cation-adjusted Mueller-Hinton agar and broth (Becton Dickinson).

[4] = tested on: E. coli J53 + VIM-2 clone; assay: MIC, broth microdilution; type: cell-based, Escherichia coli; conditions: captopril where added at 8 mg/liter
From the text: as §1

[5] = tested on: E. coli J53 + NDM-1 clone; assay: MIC, broth microdilution; type: cell-based, Escherichia coli; conditions: captopril where added at 8 mg/liter
From the text: as §1

[6] = tested on: E. coli J53 + IMP-1 clone; assay: MIC, broth microdilution; type: cell-based, Escherichia coli; conditions: captopril where added at 8 mg/liter
From the text: as §1

[7] = tested on: E. coli J53 + NDM-1 transconjugant; assay: MIC, broth microdilution; type: cell-based, Escherichia coli; conditions: captopril where added at 8 mg/liter
From the text: as §1, with “E. coli ATCC 25922 was used as a negative control.” left out, “Additionally, 5 Escherichia coli (with NDM-1), 10 Klebsiella pneumoniae (5 with NDM-1, 3 with VIM-4, and 2 with IMP-4), 1 Serratia marcescens (with IMP-4), and 2 Pseudomonas aeruginosa (with VIM-2 and AIM-1) isolates and E. coli ATCC 25922 were used in the test panel.” left out

E. coli IR10 (NDM-1) = assay: MIC, broth microdilution; type: cell-based, Escherichia coli; conditions: captopril where added at 8 mg/liter
From the text: as §1

E. coli IR24 (NDM-1) = assay: MIC, broth microdilution; type: cell-based, Escherichia coli; conditions: captopril where added at 8 mg/liter
From the text: as §1

E. coli IR15 (NDM-1) = assay: MIC, broth microdilution; type: cell-based, Escherichia coli; conditions: captopril where added at 8 mg/liter
From the text: as §1

[8] = tested on: S. marcescens B13 (IMP-4); assay: MIC, broth microdilution; type: cell-based, Serratia marcescens; conditions: captopril where added at 8 mg/liter
From the text: as §1

E. coli 25922 = assay: MIC, broth microdilution; type: cell-based, Escherichia coli; conditions: E. coli 25922 (negative control); captopril where added at 8 mg/liter
From the text: as §1, with “E. coli ATCC 25922 was used as a negative control.” left out, “Additionally, 5 Escherichia coli (with NDM-1), 10 Klebsiella pneumoniae (5 with NDM-1, 3 with VIM-4, and 2 with IMP-4), 1 Serratia marcescens (with IMP-4), and 2 Pseudomonas aeruginosa (with VIM-2 and AIM-1) isolates and E. coli ATCC 25922 were used in the test panel.” left out

[9] = tested on: K. pneumoniae B12 (IMP-4); assay: MIC, broth microdilution; type: cell-based, Klebsiella pneumoniae; conditions: captopril where added at 8 mg/liter
From the text: as §1

[10] = tested on: K. pneumoniae HR8 (NDM-1); assay: MIC, broth microdilution; type: cell-based, Klebsiella pneumoniae; conditions: captopril where added at 8 mg/liter
From the text: as §1

[11] = tested on: K. pneumoniae IR8 (NDM-1); assay: MIC, broth microdilution; type: cell-based, Klebsiella pneumoniae; conditions: captopril where added at 8 mg/liter
From the text: as §1

[12] = tested on: K. pneumoniae A33 (VIM-4); assay: MIC, broth microdilution; type: cell-based, Klebsiella pneumoniae; conditions: captopril where added at 8 mg/liter
From the text: as §1

[13] = tested on: K. pneumoniae A34 (VIM-4); assay: MIC, broth microdilution; type: cell-based, Klebsiella pneumoniae; conditions: captopril where added at 8 mg/liter
From the text: as §1

[14] = tested on: K. pneumoniae IR19 (NDM-1); assay: MIC, broth microdilution; type: cell-based, Klebsiella pneumoniae; conditions: captopril where added at 8 mg/liter
From the text: as §1

[15] = tested on: K. pneumoniae N16 (NDM-1); assay: MIC, broth microdilution; type: cell-based, Klebsiella pneumoniae; conditions: captopril where added at 8 mg/liter
From the text: as §1

[16] = tested on: K. pneumoniae A35 (VIM-4); assay: MIC, broth microdilution; type: cell-based, Klebsiella pneumoniae; conditions: captopril where added at 8 mg/liter
From the text: as §1

[17] = tested on: K. pneumoniae B19 (IMP-4); assay: MIC, broth microdilution; type: cell-based, Klebsiella pneumoniae; conditions: captopril where added at 8 mg/liter
From the text: as §1

VIM-4 = VIM-4 (Pseudomonas aeruginosa, UniProt Q8KRJ3); assay: MBL inhibition assay, VIM-4; type: biochemical
Procedure: as §5, §4

FEZ-1 = target: FEZ-1; design: method as in PMID 12507470; conditions: B3 MBL ref 23; cited from earlier work
CphA = conditions: B2 MBL ref 18; cited from earlier work

Row | SMILES | inhibition of DCLRE1B (DCLRE1B) | inhibition of hHAGH [1] | inhibition of hACE-2 [2] | inhibition of DCLRE1A (DCLRE1A) | MIC [3] [µg/mL] | MIC [4] [µg/mL] | MIC [5] [µg/mL] | MIC [6] [µg/mL] | IC50 (VIM-4) [µM] | also measured
1 | O=C(O)C1CCCN1C(=O)c1ccccc1S [D-MBP, 1-(2-mercaptobenzoyl)pyrrolidine-2-carboxylic acid] | no inhibition | no inhibition | no inhibition | no inhibition |  |  |  |  |  | IC50 (IMP-1): > 500 µM; IC50 (BcII): > 500 µM; IC50 (VIM-2): > 500 µM; IC50 (SPM-1): > 500 µM; IC50 (NDM-1): > 500 µM
2 | CC(C)(O/N=C(\C(=O)N[C@@H]1C(=O)N2C(C(=O)[O-])=C(C[n+]3ccccc3)CS[C@H]12)c1csc(N)n1)C(=O)O [CFZ, ceftazidime] |  |  |  |  | 32 (≈ 58.5 µM) | 32 (≈ 58.5 µM) | 512 (≈ 937 µM) | 128 (≈ 234 µM) |  | MIC [7]: 512 µg/mL (≈ 937 µM)
3 | C[C@@H](O)[C@H]1C(=O)N2C(C(=O)O)=C(S[C@@H]3CN[C@H](C(=O)N(C)C)C3)[C@H](C)[C@H]12 [MEM, meropenem] |  |  |  |  | 2 (≈ 5.22 µM) | 8 (≈ 20.9 µM) | 64 (≈ 167 µM) | 1 (≈ 2.61 µM) |  | MIC (E. coli IR10 (NDM-1)): 64 µg/mL (≈ 167 µM); MIC (E. coli IR24 (NDM-1)): 512 µg/mL (≈ 1340 µM); MIC (E. coli IR15 (NDM-1)): 8 µg/mL (≈ 20.9 µM); MIC [8]: 4 µg/mL (≈ 10.4 µM); MIC (E. coli 25922): < 0.125 µg/mL; MIC [9]: 8 µg/mL (≈ 20.9 µM); MIC [10]: 64 µg/mL (≈ 167 µM); MIC [11]: 16 µg/mL (≈ 41.7 µM); MIC [12]: 8 µg/mL (≈ 20.9 µM); MIC [13]: 8 µg/mL (≈ 20.9 µM); MIC [14]: 8 µg/mL (≈ 20.9 µM); MIC [15]: 32 µg/mL (≈ 83.4 µM); MIC [16]: 16 µg/mL (≈ 41.7 µM); MIC [17]: 32 µg/mL (≈ 83.4 µM)
4 | C[C@H](CS)C(=O)N1CCC[C@H]1C(=O)O [L-Captopril, (2S)-1-[(2S)-2-Methyl-3-sulfanylpropanoyl] pyrrolidine-2-carboxylic acid] | no inhibition | no inhibition | no inhibition | no inhibition |  |  |  |  | 3.9 ± 0.5 | 
5 | C[C@@H](CS)C(=O)N1CCC[C@H]1C(=O)O [D-Captopril, (2S)-1-[(2R)-2-methyl-3-sulfanylpropanoyl] pyrrolidine-2-carboxylic acid] | no inhibition | no inhibition | no inhibition | no inhibition |  |  |  |  | 1.7 ± 0.4 | Ki (FEZ-1): 400 µM; Ki (CphA): 72 µM
